The source of these data is US7547660B2, “Phenyl-substituted 4-hydroxy-tetrahydropyridones” (Bayer Aktiengesellschaft, priority 2000, dated 2009).

Structures are written as SMILES.

Holding throughout (assay type): in vivo
For assay [1], the system named is Alopecurus. In words: Pre-emergence test, greenhouse. As to conditions: after three weeks. As for the experimental part: (§1) • Solvent: 5 parts by weight of acetone • Emulsifier: 1 part by weight of alkylaryl polyglycol ether
(§2) To produce a suitable preparation of active compound, 1 part by weight of active compound is mixed to the stated amount of solvent, the stated amount of emulsifier is added and the concentrate is diluted with water to the desired concentration.
(§3) Seeds of the test plants are sown in normal soil. After about 24 hours, the soil is sprayed with the preparation of active compounds such that the particular amounts of active compound desired are applied per unit area. The concentration of the spray liquor is chosen such that the particular amounts of active compound desired are applied in 1 000 l of water/ha.
(§4) After three weeks, the degree of damage to the plants is rated in % damage in comparison to the development of the untreated control.
(§5) The figures denote: • 0%=no effect (like untreated control) • 100%=total destruction

The subject of another assay is Galium. Nature of the assay: Pre-emergence test, greenhouse. As to conditions: 500 g/ha, after three weeks. As for the experimental part: as §1, §2, §3, §4, §5
Assay [2] has as its system Amaranthus. Nature of the assay: Pre-emergence test, greenhouse. Particulars: 500 g/ha, after three weeks. As for the experimental part:
as §1, §2, §3, §4, §5

Another assay relates to Meloidogyne incognita. Nature of the assay: Meloidogyne test. As to conditions: 20 ppm active compound; after 14 days; lettuce. As for the experimental part:
Meloidogyne Test • Solvent: 30 parts by weight of dimethylformamide • Emulsifier: 1 part by weight of alkylaryl polyglycol ether To produce a suitable preparation of active compound, 1 part by weight of active compound is mixed with the stated amounts of solvent and emulsifier, and the concentrate is diluted with water to the desired concentration. Containers are filled with sand, solution of active compound, Meloidogyne incognita egg/larvae suspension and lettuce seeds. The lettuce seeds germinate and the plants develop. On the roots, galls are formed. After the desired period of time, the nematicidal action in % is determined using the formation of galls as a measure. 100% means that no galls have been found; 0% means that the number of galls on the treated plants corresponds to that on the untreated control.

The test system of the next assay is Tetranychus urticae. Nature of the assay: Tetranychus test (OP-resistent/dip treatment). As to conditions: 100 ppm active compound; after 7 days; bean plants dipped. How it is done:
Tetranychus Test (OP-Resistent/Dip Treatment)
• Solvent: 30 parts by weight of dimethylformamide • Emulsifier: 1 part by weight of alkylaryl polyglycol ether
To produce a suitable preparation of active compound, 1 part by weight of active compound is mixed with the stated amounts of solvent and emulsifier, and the concentrate is diluted with emulsifier-containing water to the desired concentration.
Bean plants (Phaseolus vulgaris) which are heavily infested by all stages of the greenhouse […] spider mite (Tetranychus urticae) are treated by being dipped into a preparation of active compound of the desired concentration.
After the desired period of time, the effect in % is determined. 100% means that all spider mites have been killed; 0% means that none of the spider mites have been killed.

For assay [3], the system named is Alopecurus. Nature of the assay: Post-emergence test, greenhouse. Particulars: 2 000 g/ha, after three weeks. As for the experimental part: as §1
(§6) To produce a suitable preparation of active compound, 1 part by weight of active compound is mixed with the stated amount of solvent, the stated amount of emulsifier is added and the concentrate is diluted with water to the desired concentration.
(§7) Test plants of a height of 5-15 cm are sprayed with the preparation of active compound such that the particular amounts of active compound desired are applied per unit area. The concentration of the spray liquor was chosen such that the particular amounts of active compound desired are applied in 1 000 l of water/ha.
as §4, §5

The test system of assay [4] is Setaria. In words: Post-emergence test, greenhouse. Particulars: after three weeks. How it is done:
as §1, §6, §7, §4, §5

Assay [5] deals with Echinochloa. In words: Post-emergence test, greenhouse. Particulars: after three weeks. As for the experimental part: as §1, §6, §7, §4, §5
In the next assay the test system is Sugar beet. In words: Post-emergence test, greenhouse. Particulars: after three weeks. How it is done: as §1, §6, §7, §4, §5
The subject of assay [6] is Amaranthus. Nature of the assay: Post-emergence test, greenhouse. Particulars: after three weeks. As for the experimental part:
as §1, §6, §7, §4, §5

In assay [7] the test system is Setaria. Nature of the assay: Pre-emergence test, greenhouse. Particulars: after three weeks. How it is done: as §1, §2, §3, §4, §5
The test system of assay [8] is Echinochloa. In words: Pre-emergence test, greenhouse. Particulars: after three weeks. How it is done:
as §1, §2, §3, §4, §5

Another assay concerns Lolium. Nature of the assay: Pre-emergence test, greenhouse. Particulars: 250 g/ha, after three weeks. How it is done: as §1, §2, §3, §4, §5
In a further assay the test system is Soya. Nature of the assay: Pre-emergence test, greenhouse. As to conditions: 250 g/ha, after three weeks. How it is done:
as §1, §2, §3, §4, §5

A further assay concerns Digitaria. Nature of the assay: Pre-emergence test, greenhouse. Particulars: 250 g/ha, after three weeks. How it is done:
as §1, §2, §3, §4, §5

The test system of a further assay is Wheat. Nature of the assay: Pre-emergence test, greenhouse. As to conditions: 250 g/ha, after three weeks. As for the experimental part: as §1, §2, §3, §4, §5
Assay [9] concerns Avena fatua. In words: Post-emergence test, greenhouse. Particulars: 2 000 g/ha, after three weeks. How it is done:
as §1, §6, §7, §4, §5

Assay [10] deals with Avena fatua. In words: Pre-emergence test, greenhouse. Particulars: 2 000 g/ha, after three weeks. As for the experimental part:
as §1, §2, §3, §4, §5

As for `Cc1cc(Cl)cc(Cl)c1C1=C(O)CC(C)(C)NC1=O` [I-a-3], the “% damage Alopecurus” value in the assay with Alopecurus [1] (500 g/ha) came out at 70%. Also, the “% damage Galium” value in the assay on Galium is 100%. Further, in the assay with Amaranthus [2], the “% damage Amaranthus” value worked out at 70%.

With `Cc1ccc(Br)cc1C1=C(O)CC(C)(C)NC1=O` [I-a-4], the “kill (nematicidal action, formation of galls as measure)” value in the assay on Meloidogyne incognita is 95%.

As to `Cc1ccc(-c2ccc(Cl)cc2)cc1C1=C(O)CC(C)(C)NC1=O` [I-a-5], the “kill of spider mites” value with Tetranychus urticae turned out to be 99%.

Turning to `Cc1cc(Br)cc(Cl)c1C1=C(O)CC(C)(C)NC1=O` [I-a-10], in the assay on Alopecurus [3], the “% damage Alopecurus” value was 70%. Besides, the “% damage Setaria” value in the assay with Setaria [4] (2 000 g/ha) came to 80%; in the assay with Setaria [7] (250 g/ha), 95%. Moreover, the “% damage Echinochloa” value in the assay on Echinochloa [5] (2 000 g/ha) and in the assay on Echinochloa [8] (250 g/ha) was 80% each time. The “% damage Sugar beet” value in the assay on Sugar beet (2 000 g/ha) is listed as 0%. Further, the “% damage Amaranthus” value in the assay with Amaranthus [6] (2 000 g/ha) was found to be 70%. Further, the “% damage Lolium” value in the assay on Lolium is given as 100%. Also, the “% damage Soya” value in the assay on Soya came to 0%. Besides, in the assay on Digitaria, the “% damage Digitaria” value is on record as 90%. In addition, the “% damage Wheat” value in the assay with Wheat turned out to be 0%.

With `CCc1cc(Br)cc(Cl)c1C1=C(O)CC(C)(C)NC1=O` [I-a-11], the “% damage Alopecurus” value came out at 95% in the assay with Alopecurus [3] and 100% with Alopecurus [1] (2 000 g/ha). Moreover, the “% damage Setaria” value in the assay on Setaria [4] (2 000 g/ha) and in the assay on Setaria [7] (2 000 g/ha) was 100% throughout. Besides, the “% damage Echinochloa” value in the assay with Echinochloa [5] (2 000 g/ha) and with Echinochloa [8] (2 000 g/ha) was 100% each time. The “% damage Avena fatua” value in the assay with Avena fatua [9] and with Avena fatua [10] was 100% each time. Moreover, in the assay on Sugar beet (2 000 g/ha), the “% damage Sugar beet” value amounted to 90%.

As for `CCOC(=O)OC1=C(c2cc(-c3ccc(Cl)cc3)ccc2C)C(=O)NC(C)(C)C1` [I-c-1], the “% damage Setaria” value in the assay with Setaria [4] (250 g/ha) was determined as 80%. Further, in the assay on Echinochloa [5] (250 g/ha), the “% damage Echinochloa” value was found to be 70%. Further, the “% damage Sugar beet” value in the assay on Sugar beet (250 g/ha) was 0%. For the same molecule, the “% damage Amaranthus” value in the assay on Amaranthus [6] (250 g/ha) is on record as 80%. In addition, in the assay with Tetranychus urticae, the “kill of spider mites” value was 95%.
